# Values joined by “and” are separate entries in the source; they are usually repeats but may differ in a detail not shown here. Equal values may be shown once. Read-outs that look alike come from different tables or passages of the source.
# What was measured:
# [1] = tested on: 6 species of antibiotic resistant Escherichia coli (GEN-R, AMP-R, BLFX-R, KAN-R, NA-R and CAZ-R); conditions: 20 mM glutamine plus 8 μg/mL balofloxacin, 50 μg/mL gentamicin, 160 μg/mL nalidixic acid, ceftazidime, kanamycin or ampicillin; 4 h
# Description: (§1) Bacterium cultures of 20 mL were collected and centrifuged at 8,000 rpm for 5 minutes. The bacterial pellets were washed with equal volume of 0.85% saline solution, suspended in M9 medium containing 10 mM sodium acetate and then adjusted to OD600 of 0.5. […] These mixtures were cultured in a shaker at 200 rpm at 37° C. for 4 h. Then 100 μL of bacterial suspension was used for bacterial plate counting.
# [2] = tested on: ampicillin-resistant Escherichia coli (AMP-R); format: cell-based; conditions: 20 mM glutamine; for killing efficiency increase compared with the treatment without glutamine: 4 hours
# Description: as §1
# To investigate the effect of antibiotic dose on the sensitivity of bacteria to antibiotics by glutamine, 20 mM glutamine and 20, 40, 80, 160, 240, 320 and 400 μg/mL ampicillin were used to treat ampicillin-resistant Escherichia coli for 4 hours, and then bacterial plate counting was conducted. The survival rates of bacteria with and without glutamine were compared at the same antibiotic concentration.
# To investigate the effect of exposure time on the killing efficiency, the viable counts of bacteria were counted during 1-8 hours after spiked with 20 mM glutamine and 160 μg/mL ampicillin.
# To investigate the effect of glutamine concentration on killing efficiency and the optimum bactericidal concentrations, different concentrations of glutamine were added to 160 μg/mL ampicillin. The number of live bacteria was counted after 4 hours. The survival rate was calculated according to the formula below: viable counts at different concentration of glutamine/viable counts without glutamine×100%.
# Single clone of ampicillin-resistant Escherichia coli was selected and inoculated in 100 mL LB medium and cultured at 200 rpm at 37° C. for 16 hours. Bacterial suspension of 20 mL was collected and centrifuged at 8,000 rpm for 5 min. The resulting bacterial pellets were washed with equal volume of 0.85% saline solution, suspended in M9 medium containing 10 mM sodium acetate and then adjusted to […] of 0.5. Aliquots of 5 mL bacterial cells were transferred to test tubes for further application.
# The sample was added with 160 μg/mL ampicillin and 0-20 Mm glucose, then cultured in a shaker at 200 rpm at 37° C. for 4 hours. The cell number was counted and survival rate was calculated. […]
# [3] = tested on: Escherichia coli K12 BW25113 (control bacteria); assay: Viable counts and survival rate of control bacteria; format: cell-based; conditions: 4 hours
# Description: (§2) The viable counts and survival rate of bacteria were calculated after added with 20 mM glutamine and 160 μg/mL ampicillin for 4 hours.
# (§3) The viable counts and survival rate of bacteria were calculated after added with 20 mM glutamine and 4 kinds of penicillins (does for control bacteria were: ampicillin 25 μg/mL, penicillin G 200 μg/mL, amoxicillin 20 μg/mL, carbenicillin 100 μg/mL; does for antibiotic resistant bacteria were: ampicillin 320 μg/mL, penicillin G 2560 μg/mL, amoxicillin 512 μg/mL, carbenicillin 320 μg/mL) for 4 hours.
# The viable counts and survival rate of bacteria were calculated after added with 20 mM glutamine and antibiotics at the concentration of 8 times of MIC for 4 hours.
# [4] = tested on: eight species of antibiotic resistant Escherichia coli; assay: Viable counts and survival rate of several antibiotic resistant bacteria with ampicillin; format: cell-based; conditions: 20 mM glutamine, 160 μg/mL ampicillin, 4 hours
# Description: as §2
# [5] = tested on: penicillin-resistant Escherichia coli (4 antibiotic resistant bacteria); assay: Viable counts and survival rate of penicillin-resistant bacteria with 4 penicillins; format: cell-based; conditions: 20 mM glutamine with ampicillin 320 μg/mL, penicillin G 2560 μg/mL, amoxicillin 512 μg/mL or carbenicillin 320 μg/mL, 4 hours
# Description: as §3, with “To investigate whether the sensitivity of Escherichia coli and antibiotic resistant Escherichia coli to penicillin antibiotics was improved with glutamine, the samples of control bacteria and penicillin-resistant bacteria were prepared according to Embodiment 2.1. The” for “The”, “hours. […] The sensitivity of control bacteria increased 38-1000 times and 71-1900 times for 4 antibiotic resistant bacteria when added with glutamine.” for “hours.”
# [6] = tested on: Staphylococcus aureus, Edwardsiella tarda, Beta streptococcus, Pseudomonas aeruginosa, Escherichia coli, Vibrio alginolyticus and Vibrio parahaemolyticus; assay: Plate counting of several species of bacteria with ampicillin and glutamine; format: cell-based; conditions: 20 mM glutamine and ampicillin at double MIC for each strain, 4 hours
# Description: (Staphylococcus aureus, B. streptococcus, Pseudomonas aeruginosa, Escherichia coli) or 30° C. (the others) for 16 hours.
# [7] = tested on: ampicillin-resistant Escherichia coli biofilm; assay: Biofilm on PE-50 catheters in vitro, survival rate; format: cell-based; conditions: 6 hours
# Description: (§4) Single clone of ampicillin-resistant Escherichia coli was selected and incubated in LB medium overnight, then transferred into 2 mL fresh LB medium according to the proportion of 1:200 dilutions and transferred to 6 mm ultraviolet sterilized PE-50 catheters. The catheters were inoculated in 1 mL LB at 37 for 24 h. The culture medium was changed every 24 hours for 3 days. The biofilm of ampicillin-resistant bacteria in PE50 catheters were washed with 1 mL sterile phosphate-buffered saline five times to remove loosely adherent cells, and then transferred to 1.5 mL EP tubes.
# The test was divided into six groups: saline solution control, 20 mM glutamine, 160 μg/mL ampicillin, 160 μg/mL ampicillin plus 20 mM glutamine, 160 μg/mL ampicillin plus 20 mM glucose, 160 μg/mL ampicillin plus 20 mM glutamine and 20 mM glucose. The catheters were cultured in a shaker at 200 rpm at 37 for 6 hours. The bacterial biofilm was removed from catheters with sonication for 10 minutes. Serial dilutions and spot-plating were performed to determine the cell number. The bacterial survival rate was calculated as: viable counts in treatment group/viable counts in control group×100%.
# [8] = tested on: ampicillin-resistant Escherichia coli biofilm; assay: Mouse urinary tract catheter biofilm model, bacterial survival rate in biofilm; format: in vivo; conditions: mice, tail intravenous injection twice-daily for 3 days; glutamine 100 mg kg−1, glucose 100 mg kg−1, ampicillin 320 mg kg−1 as present
# Description: as §4
# In vivo experiments in mice, female mice (5 weeks, weighing 18-20 g) received surgical implantation in the urinary tract of PESO catheter tubes. The mice were randomly divided into six groups in 48 h after the surgery, five each group. The six groups included treatment with saline (group 1), 100 mg kg^−1 glutamine (group 2), 320 mg kg^−1 ampicillin (group 3), 100 mg kg^−1 glutamine plus 320 mg kg^−1 ampicillin (group 4), 100 mg kg^−1 glucose plus 320 mg kg^−1 ampicillin (group 5), and 100 mg kg^−1 glutamine and 100 mg kg^−1 glucose plus 320 mg kg^−1 ampicillin (group 6) by tail intravenous injection for 3 days, twice-daily. Catheter tubes were extracted in 24 hours after the last treatment. […] The survival rate was calculated as: viable counts in treatment group/viable counts in control group×100%.
# [9] = tested on: antibiotic-resistant bacteria in kidneys; assay: Mouse urinary tract infection model, bacterial content in kidneys; format: in vivo; conditions: mice, tail i.v. twice-daily for 3 days; glutamine 100 mg kg−1, glucose 100 mg kg−1, ampicillin 320 mg kg−1 as present; saline group 16750
# Description: In vivo experiments in mice, female mice (5 weeks, weighing 18-20 g) received surgical implantation in the urinary tract of PESO catheter tubes. The mice were randomly divided into six groups in 48 h after the surgery, five each group. The six groups included treatment with saline (group 1), 100 mg kg^−1 glutamine (group 2), 320 mg kg^−1 ampicillin (group 3), 100 mg kg^−1 glutamine plus 320 mg kg^−1 ampicillin (group 4), 100 mg kg^−1 glucose plus 320 mg kg^−1 ampicillin (group 5), and 100 mg kg^−1 glutamine and 100 mg kg^−1 glucose plus 320 mg kg^−1 ampicillin (group 6) by tail intravenous injection for 3 days, twice-daily. Catheter tubes were extracted in 24 hours after the last treatment. To dislodge biofilm cells, catheters were suspended in saline solution with ultrasonic. Serial dilutions and spot-plating were performed to determine the bacterial survival rate in biofilm. The survival rate was calculated as: viable counts in treatment group/viable counts in control group×100%.
# Meanwhile, kidneys of mice were homogeneous with appropriate amount of saline. Bacterial content in kidneys was determined by plate counting method.
compound,measurement,setting,value
NC(=O)CC[C@H](N)C(=O)O [glutamine],sensitivity of antibiotic resistant bacteria to respective antibiotic,[1],improved the sensitivity of 6 species of antibiotic resistant bacteria to respective antibiotic
same,killing efficiency increase compared with the treatment without glutamine,[2]; 20 μg/mL ampicillin,1.12 folds
same,killing efficiency increase compared with the treatment without glutamine,[2]; 40 μg/mL ampicillin,1.57 folds
same,killing efficiency increase compared with the treatment without glutamine,[2]; 80 μg/mL ampicillin,1.95 folds
same,elevated sensitivity of ampicillin-resistant bacteria to ampicillin,"[2]; 160 μg/mL ampicillin, 4 h",about 200 folds
same,killing efficiency increase compared with the treatment without glutamine,[2]; 160 μg/mL ampicillin,7.66 folds
same,killing efficiency increase,"[2]; 160 μg/mL ampicillin, after 4 hours or more",8-22 times
same,killing efficiency increase compared with the treatment without glutamine,[2]; 240 μg/mL ampicillin,24.29 folds
same,killing efficiency increase compared with the treatment without glutamine,[2]; 320 μg/mL ampicillin,137.78 folds
same,killing efficiency increase compared with the treatment without glutamine,[2]; 400 μg/mL ampicillin,171.34 folds and 200 folds
same,sensitivity to four types of penicillins increased,"[3]; 20 mM glutamine with ampicillin 25 μg/mL, penicillin G 200 μg/mL, amoxicillin 20 μg/mL or carbenicillin 100 μg/mL",38-1000 times
same,sensitivity to 4 kinds of antibiotics improved,"[3]; 20 mM glutamine with tetracycline, erythromycin, clindamycin or rifampicin at 8 times of MIC",approximately 1.5 times
same,sensitivity to ampicillin increased,"[3]; 20 mM glutamine, 160 μg/mL ampicillin",1.75 times
same,sensitivity to ampicillin increased,[4],4-36 times
same,sensitivity to four types of penicillins increased,[5],71-1900 times
same,sensitivity of several species of bacteria to ampicillin,[6],improved generally
same,elimination of biofilm by single agent,[7]; 20 mM glutamine or 160 μg/mL ampicillin alone,did not eliminate the antibiotic-resistant bacterium biofilm
same,bacterial survival rate in biofilm (treatment group/saline control),"[7]; 20 mM glutamine, 160 μg/mL ampicillin, 20 mM glucose as present",96.03%
same,bacterial survival rate in catheter biofilm in comparison with saline control,[8],88.24%
same,bacterial content in kidneys,[9],9113 cell/g

# Source: patent US9962351B2, “Small molecule substance for improving sensitivity of bacteria to antibiotics” (priority 2012, dated 2018)
